Test results as given in ChEMBL document CHEMBL1148809, “Biological evaluation, structure-activity relationships, and three-dimensional quantitative structure-activity relationship studies of dihydro-beta-agarofuran sesquiterpenes as modulators of P-glycoprotein-dependent multidrug resistance” (J Med Chem, 2007).

Assays:
[1] = biological target: ATP-dependent translocase ABCB1 (Homo sapiens, UniProt P08183); experiment: (§1) Inhibition of human Pgp-mediated DNR transport in NIH3T3 cells by microplate assay; format: cell-based, Mus musculus
Chain of ATP-dependent translocase ABCB1 (P08183 whole entry): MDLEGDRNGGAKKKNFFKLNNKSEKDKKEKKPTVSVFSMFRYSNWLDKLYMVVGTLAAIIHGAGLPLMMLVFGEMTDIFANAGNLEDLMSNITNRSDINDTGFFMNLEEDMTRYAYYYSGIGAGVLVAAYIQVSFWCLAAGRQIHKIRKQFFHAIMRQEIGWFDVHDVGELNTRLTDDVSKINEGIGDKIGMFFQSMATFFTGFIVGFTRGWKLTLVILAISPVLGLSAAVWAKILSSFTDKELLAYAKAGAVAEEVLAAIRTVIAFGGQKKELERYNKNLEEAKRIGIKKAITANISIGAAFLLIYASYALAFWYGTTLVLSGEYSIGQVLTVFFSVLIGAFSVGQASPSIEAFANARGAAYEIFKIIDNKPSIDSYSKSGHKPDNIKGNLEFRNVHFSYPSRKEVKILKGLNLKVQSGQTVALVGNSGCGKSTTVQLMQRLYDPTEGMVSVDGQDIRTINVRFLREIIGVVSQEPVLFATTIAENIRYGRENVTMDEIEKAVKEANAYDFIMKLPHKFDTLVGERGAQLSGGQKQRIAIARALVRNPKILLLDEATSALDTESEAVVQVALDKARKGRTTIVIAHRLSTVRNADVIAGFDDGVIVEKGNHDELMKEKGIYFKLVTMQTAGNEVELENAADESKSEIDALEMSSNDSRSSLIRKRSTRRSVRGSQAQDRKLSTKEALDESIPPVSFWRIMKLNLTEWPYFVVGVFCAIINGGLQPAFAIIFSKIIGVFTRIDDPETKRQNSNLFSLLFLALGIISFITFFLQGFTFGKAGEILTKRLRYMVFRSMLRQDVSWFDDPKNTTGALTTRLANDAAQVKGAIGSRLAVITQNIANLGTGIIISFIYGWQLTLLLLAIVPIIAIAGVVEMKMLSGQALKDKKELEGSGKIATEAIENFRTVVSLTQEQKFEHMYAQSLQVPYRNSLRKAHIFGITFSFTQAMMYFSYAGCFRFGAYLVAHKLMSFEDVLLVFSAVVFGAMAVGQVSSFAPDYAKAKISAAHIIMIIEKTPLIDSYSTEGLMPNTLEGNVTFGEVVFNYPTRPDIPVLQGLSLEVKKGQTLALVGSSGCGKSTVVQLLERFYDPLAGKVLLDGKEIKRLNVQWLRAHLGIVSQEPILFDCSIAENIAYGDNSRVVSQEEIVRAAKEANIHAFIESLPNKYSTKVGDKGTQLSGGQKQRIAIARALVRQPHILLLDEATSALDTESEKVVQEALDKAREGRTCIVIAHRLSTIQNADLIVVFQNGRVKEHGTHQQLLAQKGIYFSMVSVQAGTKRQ

P-gp (ABCB1) = P-gp (ABCB1) (Homo sapiens, UniProt P08183); experiment: as §1; format: cell-based, Mus musculus; settings: mouse, NIH3T3 cells expressing human P-gp, probe DNR; read-out: Imax
Chain of P-gp (ABCB1) (P08183 whole entry): as above

[2] = Partition coefficient, log P of the compound; format: physicochemical; settings: octanol/water

SMILES	Ki ([1]; read-out: Ki) [nM]	Emax (P-gp (ABCB1)) [%]	logP ([2]; read-out: LogP)	logP [2]	Ki ([1]; read-out: Log Ki (converted)) [nM]
CC(=O)O[C@H]1[C@@H](OC(=O)c2ccccc2)C[C@@](C)(O)[C@]23OC(C)(C)[C@H](C[C@H](OC(=O)c4ccco4)[C@]12C)[C@H]3OC(=O)c1cccc2ccccc12	4590	54.8	–	9.6	–
CC(=O)OC[C@]12[C@@H](OC(=O)c3ccccc3)C[C@@H]3[C@@H](OC(=O)c4ccccc4)[C@]1(OC3(C)C)[C@H](C)C[C@H](OC(=O)c1cccnc1)[C@@H]2OC(C)=O	710	85.8	8.4	–	–
CC(=O)OC[C@]12[C@H](OC(C)=O)C(=O)[C@@H]3[C@@H](O)[C@]1(OC3(C)C)[C@](C)(O)C[C@H](OC(C)=O)[C@@H]2OC(C)=O	7650	39	3.3	–	–
CC(=O)OC[C@]12[C@@H](OC(=O)c3ccccc3)C[C@@H]3[C@@H](OC(C)=O)[C@]1(OC3(C)C)[C@H](C)C[C@H](OC(C)=O)[C@@H]2OC(C)=O	2360	80.8	5.7	–	–
CC(=O)O[C@H]1C[C@@](C)(O)[C@]23OC(C)(C)[C@H](C[C@H](OC(=O)c4ccco4)[C@]2(C)[C@H]1OC(C)=O)[C@H]3OC(=O)C(F)(F)F	12100	34	4.1	–	–
CCCCCCCCCCCC(=O)O[C@@H]1[C@H]2C[C@H](OC(=O)c3ccco3)[C@]3(C)[C@@H](OC(C)=O)[C@@H](OC(C)=O)C[C@@](C)(O)[C@@]13OC2(C)C	800	72.7	–	9.1	–
CC(=O)O[C@H]1C[C@@](C)(O)[C@]23OC(C)(C)[C@H](C[C@H](OC(=O)c4ccco4)[C@]2(C)[C@H]1OC(C)=O)[C@H]3OC(=O)c1cccc2ccccc12	1650	91.1	7.3	–	–
CC(=O)O[C@H]1[C@@H](OC(=O)c2ccccc2)C[C@@](C)(O)[C@]23OC(C)(C)[C@H](C[C@H](OC(=O)c4ccco4)[C@]12C)[C@H]3OC(=O)C(F)(F)F	1560	53.3	6.4	–	–
CC(=O)OC[C@]12[C@@H](OC(=O)c3ccccc3)C[C@@H]3[C@@H](OC(=O)c4ccccc4)[C@]1(OC3(C)C)[C@](C)(O)C[C@H](OC(C)=O)[C@@H]2OC(C)=O	1500	100	7.3	–	–
CC(=O)OC[C@]12[C@@H](OC(=O)c3ccccc3)C[C@@H]3[C@@H](OC(C)=O)[C@]1(OC3(C)C)[C@H](C)C[C@H](OC(=O)c1ccccc1)[C@@H]2OC(C)=O	630	88	7.7	–	–
CC(=O)OC[C@]12[C@@H](OC(=O)c3ccccc3)C[C@@H]3[C@@H](OC(C)=O)[C@]1(OC3(C)C)[C@](C)(O)C[C@H](OC(C)=O)[C@@H]2OC(C)=O	4390	85	5	–	3470
CC(=O)O[C@H]1C[C@@](C)(O)[C@]23OC(C)(C)[C@H](C[C@H](OC(=O)c4ccco4)[C@]2(C)[C@H]1OC(C)=O)[C@H]3OC(=O)C(C)(C)C	960	75.2	5	–	–
CCCCCCCCCCCC(=O)O[C@@H]1[C@H]2C[C@H](OC(=O)c3ccco3)[C@]3(C)[C@@H](OC(C)=O)[C@@H](OC(=O)c4ccccc4)C[C@@](C)(O)[C@@]13OC2(C)C	5160	29.2	–	11.4	–

The next lines start with the values.

Ki ([1]; read-out: Ki) [nM]	Emax (P-gp (ABCB1)) [%]	logP ([2]; read-out: LogP)	logP [2]	Ki ([1]; read-out: Log Ki (converted)) [nM]	SMILES
570	95.5	6.6	–	–	CCCCCO[C@H]1C[C@@](C)(O)[C@]23OC(C)(C)[C@H](C[C@H](OC(=O)c4ccco4)[C@]2(C)[C@H]1OC(C)=O)[C@H]3OC(=O)c1ccco1
7420	100	6.1	–	–	CC(=O)O[C@H]1[C@@H](OC(=O)c2cccnc2)C[C@@](C)(O)[C@]23OC(C)(C)[C@H](C[C@H](OC(=O)c4ccco4)[C@]12C)[C@H]3OC(=O)c1ccco1
2500	68	5.7	–	–	CC(=O)O[C@H]1[C@@H](OC(=O)c2ccccc2)C[C@@](C)(O)[C@]23OC(C)(C)[C@H](C[C@H](OC(=O)c4ccco4)[C@]12C)[C@H]3O
17500	100	3.4	–	–	CC(=O)O[C@H]1C[C@@](C)(O)[C@]23OC(C)(C)[C@H](C[C@H](OC(=O)c4ccco4)[C@]2(C)[C@H]1OC(C)=O)[C@H]3O
4510	99.4	6.5	–	–	CC(=O)OC[C@]12[C@@H](OC(=O)c3ccco3)C[C@@H]3[C@@H](OC(C)=O)[C@]1(OC3(C)C)[C@](C)(O)C[C@H](OC(=O)c1ccco1)[C@@H]2OC(=O)c1ccco1
4130	61.7	5.1	–	–	CC(=O)O[C@@H]1[C@H]2C[C@H](OC(=O)c3ccco3)[C@]3(C)[C@@H](OC(C)=O)[C@@H](OC(=O)c4ccco4)C[C@@](C)(O)[C@@]13OC2(C)C
6610	96.3	5.3	–	–	CC(=O)O[C@H]1CC[C@@](C)(O)[C@]23OC(C)(C)[C@H](C[C@H](OC(=O)c4ccco4)[C@]12C)[C@H]3OC(=O)c1ccco1
4160	51.8	4.3	–	–	CC(=O)O[C@H]1[C@@H](O)C[C@@](C)(O)[C@]23OC(C)(C)[C@H](C[C@H](OC(=O)c4ccco4)[C@]12C)[C@H]3OC(=O)c1ccco1
5530	41.2	4.7	–	–	CC(=O)O[C@H]1[C@@H](OC(=O)c2ccco2)C[C@@](C)(O)[C@]23OC(C)(C)[C@H](C[C@H](OC(=O)c4ccco4)[C@]12C)[C@H]3O
100000	100	4.3	–	–	CC(=O)O[C@H]1C[C@@](C)(O)[C@]23OC(C)(C)[C@H](C[C@H](OC(=O)c4ccco4)[C@]2(C)[C@H]1O)[C@H]3OC(=O)c1ccco1
2920	92.7	6.1	–	–	CC(=O)O[C@@H]1[C@H]2C[C@H](OC(=O)c3ccco3)[C@]3(C)[C@@H](OC(C)=O)[C@@H](OC(=O)c4ccccc4)C[C@@](C)(O)[C@@]13OC2(C)C
2440	76.9	5.4	–	–	CC(=O)OC[C@]12[C@@H](OC(=O)c3ccco3)C[C@@H]3[C@@H](OC(=O)c4ccco4)[C@]1(OC3(C)C)[C@](C)(O)C[C@H](OC(C)=O)[C@@H]2OC(C)=O
1940	91.3	6.9	–	–	CCCCCO[C@H]1[C@@H](OC(=O)c2ccco2)C[C@@](C)(O)[C@]23OC(C)(C)[C@H](C[C@H](OC(=O)c4ccco4)[C@]12COC(C)=O)[C@H]3OC(C)=O
1130	100	6.2	–	–	CCCO[C@H]1C[C@@](C)(O)[C@]23OC(C)(C)[C@H](C[C@H](OC(=O)c4ccco4)[C@]2(C)[C@H]1OC(C)=O)[C@H]3OC(=O)c1ccco1
3450	45.3	7.2	–	–	CC(=O)O[C@H]1C[C@@](C)(O)[C@]23OC(C)(C)[C@H](C[C@H](OC(=O)c4ccco4)[C@]2(C)[C@H]1OC(=O)c1ccccc1)[C@H]3OC(=O)c1ccco1
8940	67.9	6.1	–	–	CC(=O)O[C@H]1C[C@@](C)(O)[C@]23OC(C)(C)[C@H](C[C@H](OC(=O)c4ccco4)[C@]2(C)[C@H]1OC(C)=O)[C@H]3OC(=O)c1ccccc1
700	93.1	7.1	–	–	CC(=O)O[C@H]1[C@@H](OC(=O)c2ccccc2)C[C@@](C)(O)[C@]23OC(C)(C)[C@H](C[C@H](OC(=O)c4ccco4)[C@]12C)[C@H]3OC(=O)c1ccco1
1040	90	7.3	–	–	CC(=O)O[C@H]1[C@@H](OC(=O)c2ccccc2)C[C@@](C)(O)[C@]23OC(C)(C)[C@H](C[C@H](OC(=O)c4ccco4)[C@]12C)[C@H]3OC(=O)C(C)(C)C
2910	95.7	5.1	–	–	CC(=O)O[C@H]1C[C@@](C)(O)[C@]23OC(C)(C)[C@H](C[C@H](OC(=O)c4ccco4)[C@]2(C)[C@H]1OC(C)=O)[C@H]3OC(=O)c1ccco1
